Data published in patent US20130287856A1, “Drug Delivery Dispersion And Film Formed Therefrom” (priority 2010, published 2013).

Assay: Extractable percent of unreacted silicone, second evaluation (cure rate with active agents)
Format: physicochemical
Conditions: for Cure Rate After 3 Min. (%) / Cure Rate After 120 Min. (%): active agent added to Dispersion 1 aged 1 week at 45° C., slope of extractable plot, lower values = higher reactivity; for effect of active agent on cure (in words): active agent in Dispersion 1, after 120 minutes
Method: After ageing, the samples are spread out onto silicon free Glassine paper and the water is allowed to evaporate such that the vinyl PDMS and SiH siloxane reaction and form films. More specifically, about 2 grams of each sample is spread using a 1.2 g/m^2 bar equipped with an automatic film application (type 4340 from Braive Instruments). At times from zero to 120 minutes, the percent of vinyl PDMS and SiH siloxane is determined using 30 ml of methylisobutyl ketone (MIBK). Additionally, silicone concentration on the Glassine paper resulting from reacted vinyl PDMS and SiH siloxane is determined by XRF using an Oxford Lab X-3000. The percent unreacted/extractable vinyl PDMS and SiH siloxane is plotted in an extractable plot set forth as FIG. 3. Additional samples of Dispersion 1 are aged for 1 week at 45° C. […] At this point, films are formed from these samples to determine an effect of the active agents on curing and reaction of the vinyl PDMS and SiH siloxane. More specifically, for these samples, an additional extractable plot is generated (not shown in the Figures) using the same method as described above. […] The results of these evaluations are set forth in Table 1 immediately below with lower values representing higher reactivity.

Cure Rate After 3 Min. (%) | Cure Rate After 120 Min. (%) | effect of active agent on cure (in words) | Compound
36.5% | 12.1% | slight inhibition of the cure | O=C(O)c1ccccc1O [Salicylic acid, salicylic acid]
43.3% | 21.8% | slight inhibition of the cure | O=C(O)c1cccnc1 [Vitamin B3, vitamin B3]
25.7% | 5.4% | – | Clc1ccccc1C(c1ccccc1)(c1ccccc1)n1ccnc1 [Clotrimazol, clotrimazol]
16.4% | 3.3% | – | [Cl][Ag] [AgCl]
18.4% | 4.8% | – | CC(C)(CO)[C@@H](O)C(=O)NCCCO [Dexpanthenol, dexpanthenol]

Compound | Cure Rate After 3 Min. (%) | Cure Rate After 120 Min. (%) | effect of active agent on cure (in words)
Cn1c(=O)c2c(ncn2C)n(C)c1=O [Caffeine, caffeine] | 31.7% | 8.5% | –
CCN(CC)CC(=O)Nc1c(C)cccc1C [Lidocaine, lidocaine] | 21.1% | 4.9% | –
